≈ marks a conversion by molar mass, not a printed value.
Tests used:
Experiment in all cases: In vitro antibacterial activity, microtitration dilution method (MIC)
Type in all cases: cell-based
[1] = test system: Enterobacter cloacae MA 2646; settings: MA2646; Enterobacter cloacae MA 2646, microtitration dilution; read-out: Minimal Inhibitory Concentration MIC
Text: (§1) The compounds of the invention display antibacterial activity when tested by the microtitration dilution method as described in Heifetz, et al, Antimicr. Agents & Chemoth., 6, 124 (1974), which is incorporated herein by reference. By use of this method, the followed minimum inhibitory concentration values (MICs in μg/mL) were obtained for representative compounds of the invention.

Escherichia coli Vogel = settings: Escherichia coli Vogel, microtitration dilution; read-out: Minimal Inhibitory Concentration MIC
Text: as §1

[2] = test system: Providencia rettgeri M 1771; settings: M1771; Providencia rettgeri M 1771, microtitration dilution; read-out: Minimal Inhibitory Concentration MIC
Text: as §1

[3] = test system: Staphylococcus aureus H 228; settings: H228; Staphylococcus aureus H 228, microtitration dilution; read-out: Minimal Inhibitory Concentration MIC
Text: as §1

[4] = test system: Streptococcus pyogenes C-203; settings: C203; Streptococcus pyogenes C-203, microtitration dilution; read-out: Minimal Inhibitory Concentration MIC
Text: as §1

[5] = test system: Klebsiella pneumoniae MGH-2; settings: MGH2; Klebsiella pneumoniae MGH-2, microtitration dilution; read-out: Minimal Inhibitory Concentration MIC
Text: (§2) Agents & Chemoth., 6, 124 (1974), which is incorporated herein by reference.

[6] = test system: Pseudomonas aeruginosa UI-18; settings: UI18; Pseudomonas aeruginosa UI-18, microtitration dilution; read-out: Minimal Inhibitory Concentration MIC
Text: as §2

[7] = test system: Staphylococcus aureus UC-76; settings: UC76; Staphylococcus aureus UC-76, microtitration dilution; read-out: Minimal Inhibitory Concentration MIC
Text: as §2

[8] = test system: Streptococcus faecalis MGH-2; settings: Enterococcus faecalis, MGH2; Streptococcus faecalis MGH-2, microtitration dilution; read-out: Minimal Inhibitory Concentration MIC
Text: as §2

[9] = test system: Streptococcus pneumoniae SV-1; settings: SV1; Streptococcus pneumoniae SV-1, microtitration dilution; read-out: Minimal Inhibitory Concentration MIC
Text: as §2

## Cc1c(F)c(N2CCNCC2)cc2c1c(=O)c(C(=O)O)cn2C1CC1 [Ex. 6, 1-Cyclopropyl-6-fluoro-1,4-dihydro-5-methyl-4-oxo-7-(1-piperazinyl)-3-quinolinecarboxylic acid]
[1]
  MIC: 0.013 µg/mL (≈ 0.0376 µM)
Escherichia coli Vogel
  MIC: 0.013 µg/mL (≈ 0.0376 µM)
[2]
  MIC: 0.1 µg/mL (≈ 0.29 µM)
[3]
  MIC: 0.1 µg/mL (≈ 0.29 µM)
[4]
  MIC: 0.1 µg/mL (≈ 0.29 µM)
[5]
  MIC: 0.05 µg/mL (≈ 0.145 µM)
[6]
  MIC: 0.2 µg/mL (≈ 0.579 µM)
[7]
  MIC: 0.025 µg/mL (≈ 0.0724 µM)
[8]
  MIC: 0.05 µg/mL (≈ 0.145 µM)
[9]
  MIC: 0.05 µg/mL (≈ 0.145 µM)

Source: US5585491A, “Antibacterial agents” (Otsuka Pharmaceutical Co., Ltd., priority 1995, dated 1996)
